Tested on: human cell co-culture system
Test: In vitro angiogenesis co-culture system (angiogenesis kit, TCS Biologicals), tubule formation
Assay type: cell-based
Conditions: 11 days co-culture; PECAM-1 staining; Egr-1 DNA 0.5-2.5 μg per well, VEGF protein 2 ng/ml, suramin 20 μM
Experimental: Egr-1 under the control of the hCMV promoter (Houston et al, Arterioscler. Thromb. Vasc. Biol., 19; 281-289, 1999) was transfected into a human cell co-culture system designed to measure angiogenesis in vitro. The angiogenesis kit (TCS Biologicals) was used as described according to the manufacturer's instructions using VEGF protein (2 ng/ml) and suramin (20 μM) as positive and negative controls respectively for angiogenesis.
Optimisation of transfection in the co-culture system was performed using pGL3 control luciferase (Promega) with 1.0 μg and 0.5 μg CMV-β gal as a normalising plasmid for transfection control. Two ratios of lipid: DNA (v/w) were used; 2:1 and 4:1 (FIG. 3a.). CMV Egr-1 DNA was transfected at 0.5, 1.0, 1.5 and 2.5 μg per well in triplicate in a 24 well microtitre plate using Mirus Transit reagent (Cambridge Biosciences) at a ratio of 2:1 v/w DNA. VEGF protein positive control and suramin negative control was added to triplicate wells. After 11 days co-culture angiogenesis was determined by staining of cells for the endothelial cell marker PECAM-1 and visualisation using BCIP/NBT substrate.
Representative images of tubule formation using all four doses of Egr-1 expression plasmid together with VEGF (positive control) and suramin (negative control) were captured and processed by image analysis using Quantimet 600 image analyser and associated software. […]

## Cc1ccc(C(=O)Nc2ccc(S(=O)(=O)O)c3cc(S(=O)(=O)O)cc(S(=O)(=O)O)c23)cc1NC(=O)c1cccc(NC(=O)Nc2cccc(C(=O)Nc3cc(C(=O)Nc4ccc(S(=O)(=O)O)c5cc(S(=O)(=O)O)cc(S(=O)(=O)O)c45)ccc3C)c2)c1 [suramin]
  tubule formation: Decreased tubule formation

Source: patent US20030124554A1, “Screening method for compounds capable of modularing egr-1-regulated expression” (priority 2002, published 2003)
